Tests used:
[1] = system: excitotoxic brain damage; assay: Excitotoxic brain damage in neonatal rats; format: in vivo, Seven-day-old rat pups; conditions: for % Loss (percent loss of hemisphere weight): 30 mg/kg intraperitoneal 0.25 hours after 15 nMoles of MDA into right caudate nucleus, five days later; for extent of exitotoxic brain damage in rat pups (result in words): summary statement
Protocol: Compound 1 and compound 2 are tested in a model of excitotoxic brain damage in neonatal rats. Seven-day-old rat pups are anesthetized with ether, placed in a head holder and injected with 15 nMoles of MDA into the right caudate nucleus. The pups are treated by intraperitoneal injection with drug (30 mg/kg) or vehicle (0.2% methocel in water) 0.25 hours later and then returned to their home cage. Five days following this excitotoxic challenge, the pups are sacrificed, their brains removed and hemispheres weighed. The loss in weight of the injected hemisphere relative to the contralateral hemisphere is an estimate of the degree of brain necrosis. […] Importantly, such protection is not seen at the same dose of compound 2.

[2] = target: T1, ICE (Homo sapiens, UniProt P29466); assay: ICE colorimetric dose-response (IC50) assay; format: biochemical; conditions: about 24 nM ICE, 60 minutes preincubation, 50 µM Ac-Tyr-Val-Ala-Asp-pNA; read-out: 2. ICE IC50
T1 sequence (P29466 120-297 limits assumed): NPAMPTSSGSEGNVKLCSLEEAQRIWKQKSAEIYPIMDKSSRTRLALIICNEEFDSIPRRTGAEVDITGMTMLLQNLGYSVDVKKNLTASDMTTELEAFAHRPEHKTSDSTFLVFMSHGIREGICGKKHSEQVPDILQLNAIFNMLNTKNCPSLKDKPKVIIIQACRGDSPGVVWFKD
T1 sequence (P29466 317-404 limits assumed): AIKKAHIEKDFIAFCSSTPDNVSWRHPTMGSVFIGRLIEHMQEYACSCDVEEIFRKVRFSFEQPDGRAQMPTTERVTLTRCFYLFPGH
Protocol: Diluted inhibitor stocks are prepared by two-fold serial dilution from a primary stock whose concentration is selected (based on screening results or on prior attempts at IC50 evaluation) to achieve approximately 95% inhibition in the most concentrated well. Aliquots of each dilution are transferred to a microtitre plate in triplicate.
ICE enzyme is diluted to approximately 24 nM in HGE buffer (100 mM Hepes pH 7.5, 0.5 mM EDTA, 20% glycerol, 0.1% Bovine Serum Albumin (BSA), and activated by adding dithiothreitol (DTT) to a final concentration of 5 mM. The activated enzyme is then aliquoted into wells containing inhibitor or vehicle, and the plate is preincubated for 60 minutes at ambient temperature. Substrate (Ac-Tyr-Val-Ala-Asp-pNA) is added to each well to a final concentration of 50 µM, and plates are placed in the microtitre plate-reader thermostated to 25°°C. Beginning 5 minutes after addition of substrate, absorbance (405 nm) of wells is monitored for 1 hour, and activity is calculated as the mean rate of change in absorbance during this interval.

[3] = system: IL-1β production; assay: Mouse model: LPS-induced plasma IL-1β production; format: in vivo, Female C57BL/6 mice; conditions: for inhibition of IL-1β production: 5 mg/kg LPS i.v. at T0, compound i.v. at 3.75 hours, plasma at T4h, compared to vehicle treated animals; for production of IL-1β (result in words): summary statement
Protocol: Female C57BL/6 mice are injected intravenously with 5 mg/kg lipopolysaccaride (LPS) (E. coli 0111:B4) at T0; this induces production of the cytokine interleukin-1β. After 3.75 hours from the administration of LPS, the mice are injected intravenously with either vehicle or a test compound. The mice are bled at T4h and plasma analyzed for IL-1β by ELISA. The vehicle is 5% DMSO/20% Trappsol/3% Dextrose/NMDG.

[4] = system: focal cerebral ischemia; assay: Ischemic brain damage model: permanent (MCAOp) and transient (MCAOt) focal cerebral ischemia; format: in vivo, CD-1 mice
Protocol: Compound 1 is tested in both permanent (MCAOp) and transient (MCAOt) models of focal cerebral ischemia in the mouse. The middle cerebral artery is occluded by an intraluminal suture in CD-1 mice. In the transient model, the suture is withdrawn after 1 hour and in both studies, mice are sacrificed at 24 hours, and brain lesion size is determined from H and E stained sections. Drug or vehicle is administered IP at -5, 60, and 180 minutes from the time of vessel occlusion at doses of 25 and 50 mg/kg × 3 (MCAOp) or 50 mg/kg × 3 (MCAOt). In the more severe MCAOp, there is a small reduction in lesion size (13%, p <0.04, one-tailed t-test) at the high dose whereas, in the less severe MCAOt, the lesion size is 60% smaller in the drug treated mice (p <0.002).

[5] = system: IL-1β production in human peripheral blood mononuclear cells (PBMCs); assay: PBMC cellular assay: LPS-stimulated IL-1β production (ELISA); format: cell-based; conditions: PBMCs stimulated overnight with 10 ng/mL LPS, concentration which reduces IL-1β levels by 50%, read-out: 3. PBMC IC50
Description: Further evidence that compound 1 is a potent inhibitor of ICE is provided by its ability to inhibit IL-1β production in human peripheral blood mononuclear cells (PBMCs) as described herein. PBMCs are isolated from heparinized blood by centrifugation over a ficoll cushion, then washed three times with phosphate-buffered saline. PBMCs are suspended in a medium containing RPMI 1640 with glutamine, penicillin, streptomycin, and 2% human AB serum, then plated at 10^6 cells per well in 96 well flat bottom plates. PBMCs are stimulated overnight with 10 ng/mL of lipopolysaccharide (LPS, E. Coli strain 0111:B4; Calbiochem) in the presence or absence of compound 1 or 2. Medium is harvested, and the level of mature IL-1β was determined using an ELISA kit from R & D Systems. Compound inhibition is assessed by determining the concentration of agent which reduces IL-1β levels by 50%. Cells were cultured for an additional 4 hours in the presence of 3-(4, 5-dimethylthiazol-2-yl)-2, 5-diphenyltetrazolium bromide (MTT) to determine viability. Compound toxicity can, therefore, be assessed by determining the concentration of agent which kills 50% of the cells (IC50).

[6] = target: T2, Ich-2 (Caspase 4) (Homo sapiens, UniProt P49662); assay: Ich-2 colorimetric dose-response (IC50) assay; format: biochemical; conditions: enzyme 64 nM, 60 µM Ac-Leu-Glu-Val-Asp-pNA
T2 sequence (P49662 81-270 limits assumed): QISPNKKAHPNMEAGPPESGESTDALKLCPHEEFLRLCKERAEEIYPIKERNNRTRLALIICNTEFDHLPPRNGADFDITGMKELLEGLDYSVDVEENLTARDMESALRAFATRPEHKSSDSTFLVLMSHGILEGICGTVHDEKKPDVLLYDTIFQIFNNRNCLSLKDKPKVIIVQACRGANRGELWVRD
T2 sequence (P49662 290-377 limits assumed): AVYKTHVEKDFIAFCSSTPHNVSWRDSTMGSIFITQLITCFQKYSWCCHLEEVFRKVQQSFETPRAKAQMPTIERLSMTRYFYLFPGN
Protocol: Inhibition of Ich-2 (Caspase 4) enzyme is assayed as described above for ICE, except that enzyme is used at 64 nM, and 60 µM of the Ich-2-specific substrate Ac-Leu-Glu-Val-Asp-pNA is used instead of the ICE substrate Ac-Tyr-Val-Ala-Asp-pNA.

[7] = target: T1, ICE; assay: ICE inhibition studies (fluorogenic substrate Ac-Tyr-Val-Ala-Asp-AMC, Ki); format: biochemical
Protocol: ICE (0.24 nM final concentration) is added to 400 µL of HGDE buffer (100 mM HEPES, 20% glycerol, 5 mM DTT, 0.5 mM EDTA) containing 15 µM substrate (Ac-Tyr-Val-Ala-Asp-AMC; KM = 15 µM) plus vehicle (DMSO) or inhibitor at concentrations bracketing the Ki. Substrate hydrolysis is monitored for 300 seconds by observing the fluorescence of released AMC using excitation at 380 nm and emission at 460 nm. Mean rates of substrate hydrolysis are evaluated by linear-regression analysis of the fluorescence vs time traces. To evaluate Ki, plots of percent inhibition vs inhibitor concentration are fit by non-linear regression to a reversible, competitive model: [formula] where the competition factor (1 + [S]/KM) = 2.

Row | SMILES | % Loss (percent loss of hemisphere weight) [1] | extent of exitotoxic brain damage in rat pups (result in words) [1] | IC50 [2] | inhibition of IL-1β production [3] | production of IL-1β (result in words) [3] | reduction in lesion size ([4]; MCAOp (permanent), high dose 50 mg/kg × 3 IP at -5, 60, 180 minutes, 24 hours) | lesion size smaller in drug treated mice ([4]; MCAOt (transient, suture withdrawn after 1 hour), 50 mg/kg × 3 IP, 24 hours) | arterial lesion size in ischemic brain damage (result in words) ([4]; mice, middle cerebral artery occlusion after reperfusion, summary statement) | IC50 [5] | IC50 [6] | Mode of Inhib. [7] | Ki ([7]; 0.24 nM ICE, 15 µM Ac-Tyr-Val-Ala-Asp-AMC, reversible competitive model, read-out: 1. ICE Ki)
1 | O=CC(CC(=O)O)NC(=O)Cn1c(-c2ccc(F)cc2)ncc(NC(=O)OCc2ccccc2)c1=O [Compound 1, N-[2-(5-benzyloxycarbonyl-amino-6-oxo-2-(4-fluorophenyl)-1,6-dihydro-1-pyrimidinyl)acetoxyl]-L-aspartic acid aldehyde] | 16.1% | significantly reduces | 485 nM | 48% | significantly blocks | 13% | 60% | reduced arterial lesion size | 1800 nM | 9800 nM | reversible | 60 nM
2 | O=C(O)CC(NC(=O)Cn1c(-c2ccc(F)cc2)ncc(NC(=O)OCc2ccccc2)c1=O)C(=O)COc1cc(C(F)(F)F)nn1-c1ccccc1 (centres unmarked) [Compound 2, reference compound] | 20.8% | not seen | 4 nM | 11% | inactive | – | – | – | 2200 nM | 5 nM | irreversible | –

From patent publication EP1049703B1, “N-[2-(5-BENZYLOXYCARBONYL-AMINO-6-OXO-2-(4-FLUOROPHENYL)-1,6-DIHYDRO-1-PYRIMIDINYL)ACETOXYL]-L-ASPARTIC ACID ALDEHYDE AS AN IN VIVO INHIBITOR OF INTERLEUKIN-1BETA CONVERTING ENZYME” (WARNER-LAMBERT COMPANY, priority 1998, dated 1999)
